# Earlier results in US8945534B2, “Controlled activation of the reuterin-production machinery of Lactobacillus” (priority 2008, dated 2015).
# Tested on: Escherichia, Salmonella, Shigella, Proteus, Pseudomonas, Clostridium, Staphylococcus, Streptococcus, and Helicobacter pylori; several fungi and other …
# Conditions: species representing all bacterial genera tested thus far; U.S. Pat. Nos. 5,439,678 etc.
smiles,measurement,value
"O=CCCO [Reuterin, 3-hydroxypropionaldehyde]",inhibition of growth of microorganisms,capable of inhibiting growth
